Laboratory results reported in patent US9566265B2, “Carbazole compounds and therapeutic uses of the compounds” (Incuron, LLC, priority 2008, dated 2017).
In brackets after ≈: the same amount, converted by molar mass. Where two headings read alike, the source gives them in different places.

Legend:
C. krusei = assay: in vitro susceptibility CLSI M27A3, MIC; assay type: cell-based; conditions: Pichia kudriavzevii, ATCC6258; strain ATCC 6258, WT, Susceptible (naturally fluconazole resistant); read-out: MIC* (48 hs)
[1] = system: clinical and laboratory fungal strains; assay: in vitro susceptibility, summaries over groups of fungal strains; assay type: cell-based, Aspergillus spp., yeast
Source text: Aspergillus spp. […] Moreover, there were no MIC differences between susceptible and azole or echinocandin resistant strains (Table 1).
On average, yeast MICs were 8-fold lower than Aspergillus spp. MIC (Table 1). MICs obtained for Example 15 are compatible or better than MICs for conventional antifungal drugs.

Bacillus subtilis = assay: antibacterial cytotoxicity assay, gram(+) bacteria (OD600); assay type: cell-based; conditions: B. subtilis, 48 hours, over a range of potencies; FIG. 13B
Procedure: In vitro test to evaluate the effect of carbazole compounds on gram(-) and gram(+) bacteria. Two days prior to the start of the cytotoxicity assay, inoculate DH5-α and B. subtilis into 1 ml of corresponding media from glycerol stocks. Allow to grow during the course of the day at 37° C. with shaking. Streak each bacteria on the appropriate agar plates using a sterile inoculation loop and allow to grow overnight at 37° C. in the bacteria incubator. Using a sterile inoculation loop, pick a single colony of bacteria and inoculate 5 ml of the corresponding media in a 14 ml snap cap tube. Grow overnight ( 16 h) at 37° C. with shaking. […] Dilute 5 ml cultures of DH5-α and B. subtilis to an OD600 nm of 0.002, which corresponds to about 2×10^6 cells/ml in a volume sufficient for the experiment (dependent on the number of plates). Plate out 50 μl into each well of X 96-well plates (X=# plates needed for a given experiment). […] Chemicals for testing are prepared by dilution of stock solutions in LB Broth or Nutrient Broth for DH5-α and B. subtilis studies, respectively. Cells are treated with the final chemical concentrations presented in the scheme below (Table 2). Stock solutions are made up in DMSO. […] However, this concentration is dependent on the solubility of a given chemical and actual stock concentrations must be noted at time of experiment. Each library chemical to be tested requires 2 rows of a 96-well plate, thus 4 chemicals ([…]) can be tested in one plate simultaneously. In addition to test chemicals, each plate should include positive and negative controls. As positive control, ampicillin is used at 100 μg/ml. […] Dilutions of chemicals to be added to the plate are made up as 2× concentrations in appropriate bacteria media and added to corresponding wells in a volume of 50 μl. […] This process is repeated until all 10 2× doses are prepared. […] Following the addition of carbazole compounds to 96-well plates containing bacteria, plates are transferred to the 37° C. bacteria incubator for 48 hours. After the incubation, the OD600 mm for each well of the 96-well plates will be measured. […] The % DMSO control is plotted vs compound concentration to generate sigmoid shaped curves. After three runs are complete, the raw data for all three runs is used for IC50 calculations.

A. fumigatus = assay: in vitro susceptibility CLSI M38A2, MIC; conditions: Aspergillus fumigatus
Source text: (§1) Eight Aspergillus spp. strains were used throughout the study. Six A. fumigatus, one A. flavus and one A. terreus also were used. The A. fumigatus group included two itraconazole-resistant strains (RIT13 and RIT5 strains) (1), one triazole cross-resistant strain (MUT10) (2, 3), one echinocandin cross-resistant strain (EMFRS678P) (4), and 2 wild type susceptible isolates (R21 and ATCC13073).

A. flavus = assay: in vitro susceptibility CLSI M38A2, MIC; conditions: Aspergillus flavus
Source text: as §1

For `CCN(CC)CCn1c2ccc3c(c2c2c4c(ccc21)C(=O)CC4)CCC3=O` [Example 15], the MIC (C. krusei) was 0.66 µM (≈ 0.247 µg/mL), the “yeast MICs lower than Aspergillus spp. MIC, on average” value [1] was 8 fold and the MIC ([1]; A. flavus and A. terreus strains, read-out: 24 hs MIC Geom. Means) was 0.4 µM (≈ 0.15 µg/mL). The “antibacterial effect” value (Bacillus subtilis) was “antibacterial effect”, the MIC (A. fumigatus; ATCC13073, read-out: MIC* (24 hs), strain ATCC13073, WT, Susceptible) was 2.56 µM (≈ 0.959 µg/mL) and the MIC (A. fumigatus; ATCC13073, read-out: MIC* (48 hs), strain ATCC13073, WT, Susceptible) was 5.13 µM (≈ 1.92 µg/mL). For the same molecule, the MIC (A. fumigatus; read-out: 24 hs MIC Geom. Means, A. fumigatus strains) was 1.59 µM (≈ 0.595 µg/mL), the MIC (A. fumigatus; read-out: MIC* (24 hs), strain EMFRS678P, Fks1pS678P, Echinocandin cross-resistant) was 1.28 µM (≈ 0.479 µg/mL) and the MIC (A. fumigatus; read-out: MIC* (24 hs), strain MUT10, Cyp51Ap G138C, Triazole cross resistant) was 0.66 µM (≈ 0.247 µg/mL). It also gave an MIC (A. fumigatus; read-out: MIC* (24 hs), strain R21, WT, Susceptible) of 1.28 µM (≈ 0.479 µg/mL), an MIC (A. fumigatus; read-out: MIC* (24 hs), strain RIT5, Itraconazole resistant) of 0.66 µM (≈ 0.247 µg/mL) and an MIC (A. fumigatus; read-out: MIC* (24 hs), strain RIT13, Itraconazole resistant) of 1.61 µM (≈ 0.603 µg/mL). It also gave an MIC (A. fumigatus; read-out: MIC* (48 hs), strain EMFRS678P, Fks1pS678P, Echinocandin cross-resistant) of 2.56 µM (≈ 0.959 µg/mL), an MIC (A. fumigatus; read-out: MIC* (48 hs), strain MUT10, Cyp51Ap G138C, Triazole cross resistant) of 1.28 µM (≈ 0.479 µg/mL) and an MIC (A. fumigatus; read-out: MIC* (48 hs), strain R21, WT, Susceptible) of 2.56 µM (≈ 0.959 µg/mL). For the same molecule, the MIC (A. fumigatus; read-out: MIC* (48 hs), strain RIT5, Itraconazole resistant) was 1.28 µM (≈ 0.479 µg/mL), the MIC (A. fumigatus; read-out: MIC* (48 hs), strain RIT13, Itraconazole resistant) was 1.28 µM (≈ 0.479 µg/mL) and the MIC (A. flavus; read-out: MIC* (24 hs)) was 0.33 µM (≈ 0.124 µg/mL). The MIC (A. flavus; read-out: MIC* (48 hs)) was 0.33 µM (≈ 0.124 µg/mL).
